Data taken from ChEMBL document CHEMBL3044678, “The synthesis and herbicidal activity of 1-alkyl-3-(alpha-hydroxy-substituted benzylidene)pyrrolidine-2,4-diones” (2005).
Activity calls are given as the source filed them. The rule behind the calls is not given here.

Assays:
Echinochloa crus-galli [1] = assay: Herbicidal activity against Echinochloa crus-galli (barnyard grass) assessed as plant bleaching effect at 100 ug/mL; type: functional, organism-based; conditions: (L.) Beauv
Echinochloa crus-galli [2] = assay: Herbicidal activity against Echinochloa crus-galli (barnyard grass) assessed as growth inhibition at 100 ug/mL; type: functional; conditions: (L.) Beauv, read-out: GI
Echinochloa crus-galli [3] = assay: Herbicidal activity against Echinochloa crus-galli (barnyard grass) assessed as growth inhibition at 10 ug/mL; type: functional; conditions: (L.) Beauv, read-out: GI
Brassica napus [4] = assay: Herbicidal activity against Brassica napus (oilseed rape) assessed as growth inhibition at 100 ug/mL; type: functional; conditions: read-out: GI
Brassica napus [5] = assay: Herbicidal activity against Brassica napus (oilseed rape) assessed as growth inhibition at 10 ug/mL; type: functional; conditions: read-out: GI

SMILES | Activity (Echinochloa crus-galli [1]) | inhibition of growth at 100 µg/mL (Echinochloa crus-galli [2]) [%] | inhibition of growth at 10 µg/mL (Echinochloa crus-galli [3]) [%] | inhibition of growth at 100 µg/mL (Brassica napus [4]) [%] | inhibition of growth at 10 µg/mL (Brassica napus [5]) [%]
Cc1cccc(/C(O)=C2\C(=O)CN(C)C2=O)c1 | Active | 68.3 | 25.3 | 64 | 14
CS(=O)(=O)c1ccc(C(=O)C2C(=O)CCCC2=O)c(Cl)c1 [SULCOTRIONE] | Active | 45.1 | 29.4 | 38.1 | 3.5
Cc1ccc(/C(O)=C2\C(=O)CN(C(C)C)C2=O)cc1 | Active | 78.4 | 76.8 | 86.4 | 8.1
Cc1ccccc1/C(O)=C1\C(=O)CN(C(C)(C)C)C1=O | Active | 74.4 | 63.6 | 74.9 | 21.1
COc1ccccc1/C(O)=C1\C(=O)CN(C(C)C)C1=O | Active | 78.1 | 77.3 | 58.7 | 3
COc1ccc(/C(O)=C2\C(=O)CN(C(C)C)C2=O)cc1 | Active | 80 | 79.6 | 71 | 11.9
COc1ccc(/C(O)=C2\C(=O)CN(C)C2=O)cc1 | Active | 78.8 | 16.2 | 50.7 | 7.9
CC(C)N1CC(=O)/C(=C(/O)c2ccc([N+](=O)[O-])cc2)C1=O | inactive | 1.6 | 0 | 34.2 | 4.5
Cc1cccc(/C(O)=C2\C(=O)CN(C(C)C)C2=O)c1 | Active | 75.5 | 49.2 | 82.1 | 3.3
COc1ccccc1/C(O)=C1\C(=O)CN(C(C)(C)C)C1=O | Active | 82.9 | 74.9 | 69.5 | 41.2
CC(C)(C)N1CC(=O)/C(=C(/O)c2cccc([N+](=O)[O-])c2)C1=O | inactive | 0.5 | 0 | 80.1 | 22.1
CC(C)(C)N1CC(=O)/C(=C(/O)c2ccc([N+](=O)[O-])cc2)C1=O | inactive | 9.8 | 0 | 48.1 | 1.8
CN1CC(=O)/C(=C(/O)c2ccc(Cl)cc2)C1=O | inactive | 50.1 | 9.4 | 90.5 | 15.8
CC(C)N1CC(=O)/C(=C(/O)c2ccc(Cl)cc2)C1=O | Active | 68 | 25.1 | 77.2 | 16
Cc1ccc(/C(O)=C2\C(=O)CN(C(C)(C)C)C2=O)cc1 | inactive | 48 | 36.3 | 88.1 | 13.5
CC(C)N1CC(=O)/C(=C(/O)c2cccc([N+](=O)[O-])c2)C1=O | inactive | 42 | 0 | 70.3 | 10.2
CC(C)(C)N1CC(=O)/C(=C(/O)c2ccc(Cl)cc2)C1=O | inactive | 20.8 | 0.4 | 98 | 13.8
CN1CC(=O)/C(=C(/O)c2cccc([N+](=O)[O-])c2)C1=O | inactive | 42.8 | 5.2 | 22.4 | 0
CC(C)N1CC(=O)/C(=C(/O)c2ccccc2Cl)C1=O | Active | 77.9 | 51 | 66.8 | 38.9
Cc1cccc(/C(O)=C2\C(=O)CN(C(C)(C)C)C2=O)c1 | inactive | 48.5 | 4.9 | 85 | 24.9
Cc1ccccc1/C(O)=C1\C(=O)CN(C)C1=O | Active | 78.3 | 31.2 | 44.4 | 0
Cc1ccccc1/C(O)=C1\C(=O)CN(C(C)C)C1=O | Active | 77.3 | 76.9 | 62.4 | 15.2
CN1CC(=O)/C(=C(/O)c2ccc([N+](=O)[O-])cc2)C1=O | inactive | 51.9 | 9 | 40.9 | 5.1
COc1ccc(/C(O)=C2\C(=O)CN(C(C)(C)C)C2=O)cc1 | Active | 80.3 | 78.7 | 77.7 | 5.4
